Assay results as given in patent US9586968B2, “Bicycloamine-substituted-N-benzenesulfonamide compounds with selective activity in voltage-gated sodium channels” (Merck Sharp & Dohme Corp., priority 2013, dated 2017).

Experiments:
[1] = molecular target: T1, human Nav1.7 (Homo sapiens, UniProt Q15858); assay: PatchXpress automated patch-clamp, inactivated state block of Nav1.7; assay type: cell-based; conditions: channels stably expressed in HEK 293 cells, 22° C., read-out: potency for the Nav 1.7 sodium ion channel (as measured by PatchXpress)
T1 construct: expressed in transfected cells
T1 sequence (Q15858 whole entry): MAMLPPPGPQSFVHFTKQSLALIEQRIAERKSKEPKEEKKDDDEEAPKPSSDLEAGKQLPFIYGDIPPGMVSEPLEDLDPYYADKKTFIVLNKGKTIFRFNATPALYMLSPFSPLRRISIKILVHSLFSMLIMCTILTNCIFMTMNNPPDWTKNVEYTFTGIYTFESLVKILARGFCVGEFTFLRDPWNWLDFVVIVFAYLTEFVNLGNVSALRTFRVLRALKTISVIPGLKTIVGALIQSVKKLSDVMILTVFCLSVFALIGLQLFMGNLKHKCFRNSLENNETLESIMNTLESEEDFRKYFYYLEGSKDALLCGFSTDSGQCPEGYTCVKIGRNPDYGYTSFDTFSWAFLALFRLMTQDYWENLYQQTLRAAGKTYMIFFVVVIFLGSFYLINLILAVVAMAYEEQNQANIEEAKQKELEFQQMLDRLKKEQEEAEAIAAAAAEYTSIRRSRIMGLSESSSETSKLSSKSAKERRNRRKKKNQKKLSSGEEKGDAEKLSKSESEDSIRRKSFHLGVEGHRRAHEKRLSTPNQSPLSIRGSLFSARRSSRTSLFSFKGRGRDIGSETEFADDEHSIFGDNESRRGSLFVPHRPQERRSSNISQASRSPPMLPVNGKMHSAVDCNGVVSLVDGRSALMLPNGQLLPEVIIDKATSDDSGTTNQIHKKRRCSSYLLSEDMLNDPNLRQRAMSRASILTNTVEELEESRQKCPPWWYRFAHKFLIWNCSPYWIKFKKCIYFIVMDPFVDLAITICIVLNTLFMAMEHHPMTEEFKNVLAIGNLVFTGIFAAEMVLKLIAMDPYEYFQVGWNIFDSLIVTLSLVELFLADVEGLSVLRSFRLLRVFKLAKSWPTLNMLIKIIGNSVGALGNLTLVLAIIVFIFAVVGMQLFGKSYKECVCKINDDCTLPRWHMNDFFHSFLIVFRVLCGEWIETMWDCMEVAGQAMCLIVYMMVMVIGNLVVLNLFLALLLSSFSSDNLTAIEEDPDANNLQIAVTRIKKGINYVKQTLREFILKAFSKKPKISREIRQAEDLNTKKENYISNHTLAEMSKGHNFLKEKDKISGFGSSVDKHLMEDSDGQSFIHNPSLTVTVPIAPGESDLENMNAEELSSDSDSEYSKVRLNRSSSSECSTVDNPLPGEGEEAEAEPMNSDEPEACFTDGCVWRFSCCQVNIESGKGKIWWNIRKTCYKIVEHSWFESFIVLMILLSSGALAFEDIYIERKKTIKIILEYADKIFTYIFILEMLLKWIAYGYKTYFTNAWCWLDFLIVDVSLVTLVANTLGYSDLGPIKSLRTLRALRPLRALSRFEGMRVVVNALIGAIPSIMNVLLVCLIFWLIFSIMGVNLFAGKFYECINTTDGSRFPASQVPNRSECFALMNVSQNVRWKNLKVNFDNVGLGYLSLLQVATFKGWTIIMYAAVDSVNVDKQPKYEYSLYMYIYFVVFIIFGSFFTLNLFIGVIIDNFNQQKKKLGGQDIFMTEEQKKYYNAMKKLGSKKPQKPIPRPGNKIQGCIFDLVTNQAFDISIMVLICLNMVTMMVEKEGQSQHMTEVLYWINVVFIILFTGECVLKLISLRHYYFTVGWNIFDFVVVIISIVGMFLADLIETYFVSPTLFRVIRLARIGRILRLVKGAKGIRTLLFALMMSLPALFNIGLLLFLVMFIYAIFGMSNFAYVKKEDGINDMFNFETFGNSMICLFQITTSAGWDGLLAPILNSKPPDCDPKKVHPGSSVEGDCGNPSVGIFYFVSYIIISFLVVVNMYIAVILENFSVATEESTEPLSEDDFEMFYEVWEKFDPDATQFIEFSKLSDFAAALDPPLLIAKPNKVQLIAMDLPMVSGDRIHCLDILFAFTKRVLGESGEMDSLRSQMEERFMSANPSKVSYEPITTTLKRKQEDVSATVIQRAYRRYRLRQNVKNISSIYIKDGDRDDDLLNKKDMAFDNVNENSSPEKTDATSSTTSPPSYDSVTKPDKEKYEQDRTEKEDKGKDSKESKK
Experimental: (§1) Compounds were tested on human Nav1.7 and Nav1.5 channels stably expressed in HEK 293 cells. Activity toward Nav 1.7 and Nav 1.5 channels was assessed using the following assay methodology.
(§2) Sodium Current Measurements on the PatchXpress 7000®:
(§3) To measure inactivated state block of sodium channels, test compounds were characterized in an automated PatchXpress® assay (Molecular Devices) using a double-pulse protocol on human Nav1.7 and Nav1.5 channels stably expressed in HEK 293 cells. Cells were held at a potential 20 mV negative to V0.5 inact. An 8000 ms pre-pulse 7 mV positive to V0.5 inact was given followed by a hyperpolarizing 2 ms pulse to −120 mV and a 20 ms test pulse to −20 mV. Protocol was applied to cells in the absence, presence of compound and after washout. The temperature of PatchXpress instruments was maintained at 22° C. The following recording solutions were used. Internal solution (mM): 30 CsCl, 5 HEPES, 10 EGTA, 120 CsF, 5 NaF, 2 MgCl2. External solution (mM): 120 NMDG, 40 NaCl, 1 KCl, 0.5 MgCl2, 5 HEPES, 2.7 CaCl2.
(§4) For all electrophysiology experiments, offline analysis was used to correct for current rundown and to determine percent inhibition as a function of drug concentration. IC50 values were determined by fitting to the Hill equation.

[2] = molecular target: T2, human Nav1.5 (Homo sapiens, UniProt Q14524); assay: PatchXpress automated patch-clamp, inactivated state block of Nav1.5 (selectivity); assay type: cell-based; conditions: determined by PatchXpress measurement, HEK 293 cells
T2 construct: expressed in transfected cells
T2 sequence (Q14524 whole entry): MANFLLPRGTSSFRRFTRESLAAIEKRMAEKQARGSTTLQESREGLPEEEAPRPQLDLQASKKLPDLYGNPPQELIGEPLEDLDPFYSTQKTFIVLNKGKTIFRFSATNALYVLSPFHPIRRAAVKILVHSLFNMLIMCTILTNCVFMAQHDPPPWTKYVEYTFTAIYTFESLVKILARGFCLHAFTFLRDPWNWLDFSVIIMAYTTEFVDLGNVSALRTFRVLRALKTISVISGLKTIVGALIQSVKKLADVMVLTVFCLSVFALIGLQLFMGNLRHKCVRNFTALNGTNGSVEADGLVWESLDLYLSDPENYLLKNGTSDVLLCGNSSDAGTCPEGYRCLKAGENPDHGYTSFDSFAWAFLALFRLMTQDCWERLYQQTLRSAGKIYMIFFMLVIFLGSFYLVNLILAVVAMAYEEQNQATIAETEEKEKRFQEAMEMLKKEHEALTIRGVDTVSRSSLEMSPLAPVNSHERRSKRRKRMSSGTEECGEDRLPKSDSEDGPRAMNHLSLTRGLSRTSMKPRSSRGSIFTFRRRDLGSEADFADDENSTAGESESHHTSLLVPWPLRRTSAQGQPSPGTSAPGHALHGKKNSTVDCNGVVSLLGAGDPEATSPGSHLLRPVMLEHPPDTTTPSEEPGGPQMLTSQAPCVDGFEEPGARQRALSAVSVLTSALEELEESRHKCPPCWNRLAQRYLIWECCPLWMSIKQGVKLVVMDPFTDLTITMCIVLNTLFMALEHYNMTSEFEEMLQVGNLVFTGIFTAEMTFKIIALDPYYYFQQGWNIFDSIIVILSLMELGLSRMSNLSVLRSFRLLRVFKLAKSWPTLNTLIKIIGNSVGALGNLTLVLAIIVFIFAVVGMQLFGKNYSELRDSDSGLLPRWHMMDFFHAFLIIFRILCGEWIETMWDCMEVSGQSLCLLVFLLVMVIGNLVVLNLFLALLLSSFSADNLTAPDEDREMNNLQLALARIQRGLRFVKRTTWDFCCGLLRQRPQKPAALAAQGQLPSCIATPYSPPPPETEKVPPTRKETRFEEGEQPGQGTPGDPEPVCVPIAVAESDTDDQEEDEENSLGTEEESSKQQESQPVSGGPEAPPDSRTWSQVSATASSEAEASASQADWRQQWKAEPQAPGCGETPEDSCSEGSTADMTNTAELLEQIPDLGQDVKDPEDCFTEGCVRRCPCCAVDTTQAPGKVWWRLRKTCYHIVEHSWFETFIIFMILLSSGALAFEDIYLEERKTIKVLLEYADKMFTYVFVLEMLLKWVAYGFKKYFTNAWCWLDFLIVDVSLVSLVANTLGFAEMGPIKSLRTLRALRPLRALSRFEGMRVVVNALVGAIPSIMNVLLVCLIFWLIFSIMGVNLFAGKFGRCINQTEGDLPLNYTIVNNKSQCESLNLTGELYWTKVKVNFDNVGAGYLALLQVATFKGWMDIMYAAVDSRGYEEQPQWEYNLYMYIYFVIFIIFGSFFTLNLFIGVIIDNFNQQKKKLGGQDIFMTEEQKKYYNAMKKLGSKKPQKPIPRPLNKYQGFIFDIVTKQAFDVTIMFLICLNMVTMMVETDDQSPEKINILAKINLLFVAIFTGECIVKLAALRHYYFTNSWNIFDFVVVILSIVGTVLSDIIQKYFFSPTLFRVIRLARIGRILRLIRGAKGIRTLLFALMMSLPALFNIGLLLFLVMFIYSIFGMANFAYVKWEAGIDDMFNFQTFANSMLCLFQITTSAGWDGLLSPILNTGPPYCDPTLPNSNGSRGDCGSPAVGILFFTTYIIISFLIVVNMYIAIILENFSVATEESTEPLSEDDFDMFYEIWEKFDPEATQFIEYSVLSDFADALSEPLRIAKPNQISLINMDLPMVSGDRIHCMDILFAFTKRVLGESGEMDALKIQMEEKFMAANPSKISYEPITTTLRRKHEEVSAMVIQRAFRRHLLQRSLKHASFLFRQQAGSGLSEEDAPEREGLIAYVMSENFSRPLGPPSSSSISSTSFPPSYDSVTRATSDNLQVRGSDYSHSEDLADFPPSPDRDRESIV
Experimental: as §1, §2, §3, §4

Row | SMILES | IC50 [1] [nM] | ratio of Nav1.7 potency:Nav 1.5 potency [2]
1 | COc1ccc(C[C@H]2CN3CCC[C@@]3(CNc3cc(F)c(S(=O)(=O)Nc4nccs4)cc3Cl)C2)cc1 (single isomer, unassigned) [Ex15-10-A] | 2 | 918
2 | COc1ccc(C[C@@H]2CN3CCC[C@]3(CNc3cc(F)c(S(=O)(=O)Nc4nccs4)cc3Cl)C2)cc1 (single isomer, unassigned) [Ex15-10-B] | 30 | 308
3 | COc1ccc(CC2CN3CCCC3(CNc3cc(F)c(S(=O)(=O)Nc4ncc(F)s4)cc3Cl)C2)cc1 (single isomer, unassigned) [Ex15-12-A, 5-chloro-2-fluoro-N-(5-fluorothiazol-2-yl)-4-((((2R,7aS or 2S,7aR)-2-(4-methoxybenzyl)hexahydro-1H-pyrrolizin-7a-yl)-methyl)amino)benzene-sulfonamide] | 8 | 282
4 | COc1ccc(CC2CN3CCCC3(CNc3cc(F)c(S(=O)(=O)Nc4ncc(F)s4)cc3Cl)C2)cc1 (single isomer, unassigned) [Ex15-12-B, 5-chloro-2-fluoro-N-(5-fluorothiazol-2-yl)-4-((((2S,7aR or 2R,7aS)-2-(4-methoxybenzyl)hexahydro-1H-pyrrolizin-7a-yl)methyl)amino)benzene-sulfonamide] | 66 | 99
5 | COc1ccc([C@@H]2CN3CCC[C@@]3(CNc3cc(F)c(S(=O)(=O)Nc4nccs4)cc3Cl)C2)cc1 (single isomer, unassigned) [Ex16-12-A] | 51 | 348
6 | COc1ccc([C@H]2CN3CCC[C@]3(CNc3cc(F)c(S(=O)(=O)Nc4nccs4)cc3Cl)C2)cc1 (single isomer, unassigned) [Ex16-12-B] | 21 | 708
7 | O=S(=O)(Nc1nccs1)c1cc(Cl)c(NCC23CCCCN2CCC3)cc1F (single isomer, unassigned) [Ex17-7-A, (S or R) 5-chloro-2-fluoro-4-(((octahydroindolizin-8a-yl)methyl)amino)-N-(thiazol-2-yl)benzenesulfonamide] | 113 | 450
8 | O=S(=O)(Nc1nccs1)c1cc(Cl)c(NCC23CCCCN2CCC3)cc1F (single isomer, unassigned) [Ex17-7-B, (R or S) 5-chloro-2-fluoro-4-(((octahydroindolizin-8a-yl)methyl)amino)-N-(thiazol-2-yl)benzenesulfonamide] | 185 | 193
9 | CCc1cc(S(=O)(=O)Nc2nccs2)c(F)cc1NC[C@@]12CCCN1C[C@H](Cc1ccc(OC)cc1)C2 (single isomer, unassigned) [Ex18-5-A] | 9 | 315
10 | CCc1cc(S(=O)(=O)Nc2nccs2)c(F)cc1NC[C@]12CCCN1C[C@@H](Cc1ccc(OC)cc1)C2 (single isomer, unassigned) [Ex18-5-B] | 40 | 359
11 | CCc1cc(S(=O)(=O)Nc2nccs2)c(F)cc1NCC12CCCN1CC(C)(C)C2 (single isomer, unassigned) [Ex18-9-A, (S or R)-4-(((2,2-dimethylhexahydro-1H-pyrrolizin-7a-yl)-methyl)-amino)-5-ethyl-2-fluoro-N-(thiazol-2-yl)-benzenesulfonamide] | 55 | 548
12 | CCc1cc(S(=O)(=O)Nc2nccs2)c(F)cc1NCC12CCCN1CC(C)(C)C2 (single isomer, unassigned) [Ex18-9-B, (R or S)-4-(((2,2-dimethylhexahydro-1H-pyrrolizin-7a-yl)methyl)-amino)-5-ethyl-2-fluoro-N-(thiazol-2-yl)-benzenesulfonamide] | 16 | 1870
13 | O=S(=O)(Nc1nncs1)c1cc(Cl)c(NCC23CCCN2CCC3)cc1F [Ex1-5, 5-chloro-2-fluoro-4-[(tetrahydro-1H-pyrrolizin-7a(5H)-ylmethyl)amino]-N-(1,3,4-thiadiazol-2-yl)benzenesulfonamide] | 370 | 81
14 | N#Cc1cc(S(=O)(=O)Nc2ncns2)ccc1NCC12CCCN1CCC2 [Ex1-6, 3-cyano-4-[(tetrahydro-1H-pyrrolizin-7a(5H)-ylmethyl)amino]-N-(1,2,4-thiadiazol-5-yl)benzenesulfonamide] | 86 | 349
15 | N#Cc1cc(S(=O)(=O)Nc2nccs2)c(F)cc1NCC12CCCN1CCC2 [Ex1-10, 5-cyano-2-fluoro-4-[(tetrahydro-1H-pyrrolizin-7a(5H)-ylmethyl)amino]-N-(1,3-thiazol-2-yl)benzenesulfonamide] | 221 | 94
16 | N#Cc1cc(S(=O)(=O)Nc2ncc(Cl)s2)c(F)cc1NCC12CCCN1CCC2 [Ex1-11, N-(5-chloro-1,3-thiazol-2-yl)-5-cyano-2-fluoro-4-[(tetrahydro-1H-pyrrolizin-7a(5H)-ylmethyl)amino]benzene-sulfonamide] | 35 | 469
17 | O=S(=O)(Nc1ncc(Br)s1)c1cc(Cl)c(NCC23CCCN2CCC3)cc1F [Ex1-13, N-(5-bromothiazol-2-yl)-5-chloro-2-fluoro-4-(((hexahydro-1H-pyrrolizin-7a-yl)methyl)amino)benzene-sulfonamide] | 43 | 1507
18 | O=S(=O)(Nc1nccs1)c1ccc(NCC23CCCN2CCC3)c(Cl)c1 [Ex1-14, 3-chloro-4-(((hexahydro-1H-pyrrolizin-7a-yl)methyl)amino)-N-(thiazol-2-yl)benzenesulfonamide] | 48 | 337
19 | Cc1cc(S(=O)(=O)Nc2nccs2)c(F)cc1NCC12CCCN1CCC2 [Ex1-15, 2-fluoro-4-(((hexahydro-1H-pyrrolizin-7a-yl)methyl)amino)-5-methyl-N-(thiazol-2-yl)benzenesulfonamide] | 34 | 1149
20 | CCOC(=O)c1cnc(NS(=O)(=O)c2cc(Cl)c(NCC34CCCN3CCC4)cc2F)s1 [Ex1-16, ethyl 2-(5-chloro-2-fluoro-4-(((hexahydro-1H-pyrrolizin-7a-yl)methyl)amino)phenylsulfonamido)thiazole-5-carboxylate] | 62 | 484
21 | O=S(=O)(Nc1nccs1)c1cc(Br)c(NCC23CCCN2CCC3)cc1F [Ex1-17, 5-bromo-2-fluoro-4-(((hexahydro-1H-pyrrolizin-7a-yl)methyl)amino)-N-(thiazol-2-yl)benzenesulfonamide] | 5 | 670
22 | O=S(=O)(Nc1nccs1)c1cc(F)c(NCC23CCCN2CCC3)cc1Cl [Ex1-18, 2-chloro-5-fluoro-4-(((hexahydro-1H-pyrrolizin-7a-yl)methyl)amino)-N-(thiazol-2-yl)benzenesulfonamide] | 129 | 462
23 | O=S(=O)(Nc1nccs1)c1ccc(NCC23CCCN2CCC3)c(C(F)(F)F)c1 [Ex1-20, 4-(((hexahydro-1H-pyrrolizin-7a-yl)methyl)amino)-N-(thiazol-2-yl)-3-(trifluoromethyl)benzene-sulfonamide] | 14 | 765
24 | N#Cc1cc(S(=O)(=O)Nc2nccs2)ccc1NCC12CCCN1CCC2 [Ex2-2, 3-cyano-4-[(tetrahydro-1H-pyrrolizin-7a(5H)-ylmethyl)amino]-N-(1,3-thiazol-2-yl)benzenesulfonamide] | 40 | 746
25 | N#Cc1cc(S(=O)(=O)Nc2cccc(F)n2)ccc1NCC12CCCN1CCC2 [Ex2-3, 3-cyano-N-(6-fluoropyridin-2-yl)-4-[(tetrahydro-1H-pyrrolizin-7a(5H)-ylmethyl)amino]benzene-sulfonamide] | 168 | 18
26 | O=S(=O)(Nc1cccc(F)n1)c1cc(F)c(NCC23CCCN2CCC3)cc1F [Ex2-4, 2,5-difluoro-N-(6-fluoropyridin-2-yl)-4-[(tetrahydro-1H-pyrrolizin-7a(5H)-ylmethyl)amino]benzene-sulfonamide] | 350 | 269
27 | N#Cc1cc(S(=O)(=O)Nc2ncc(Cl)s2)ccc1NCC12CCCN1CCC2 [Ex3-4, N-(5-chloro-1,3-thiazol-2-yl)-3-cyano-4-[(tetrahydro-1H-pyrrolizin-7a(5H)-ylmethyl)amino]benzene-sulfonamide] | 151 | 199
28 | O=S(=O)(Nc1cccnn1)c1cc(Cl)c(NCC23CCCN2CCC3)cc1F [Ex3-5, 5-chloro-2-fluoro-N-(pyridazin-3-yl)-4-[(tetrahydro-1H-pyrrolizin-7a(5H)-ylmethyl)amino]benzene-sulfonamide] | 1000 | 100
29 | O=S(=O)(Nc1ccc(F)cn1)c1cc(Cl)c(NCC23CCCN2CCC3)cc1F [Ex3-7, 5-chloro-2-fluoro-N-(5-fluoropyridin-2-yl)-4-[(tetrahydro-1H-pyrrolizin-7a(5H)-ylmethyl)amino]benzene-sulfonamide] | 320 | 94
